Laboratory results from PubChem BioAssay (NCI).
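These data come from cells grown in 96-well plates and exposed to compound for 48 hours at five concentrations. GI50: concentration for 50% inhibition of growth. TGI denotes the concentration required for complete inhibition of growth.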

How the values were obtained:
Experiment in all cases: NCI-60 cell line screen, 48 h
[1] = tested on: 786-0 renal
[2] = tested on: A498 renal
[3] = tested on: A549 NSCLC
[4] = tested on: ACHN renal
[5] = tested on: BT-549 breast
[6] = tested on: CAKI-1 renal
[7] = tested on: CCRF-CEM leukemia
[8] = tested on: COLO 205 colon
[9] = tested on: DU-145 prostate
[10] = tested on: HCC-2998 colon
[11] = tested on: HCT-116 colon
[12] = tested on: HCT-15 colon
[13] = tested on: HL-60(TB) leukemia
[14] = tested on: HOP-62 NSCLC
[15] = tested on: HOP-92 NSCLC
[16] = tested on: HS 578T breast
[17] = tested on: HT29 colon
[18] = tested on: IGROV1 ovarian
[19] = tested on: K-562 leukemia
[20] = tested on: KM12 colon
[21] = tested on: LOX IMVI melanoma
[22] = tested on: M14 melanoma
[23] = tested on: MALME-3M melanoma
[24] = tested on: MCF7 breast
[25] = tested on: MDA-MB-231 breast
[26] = tested on: MDA-MB-435
[27] = tested on: MOLT-4 leukemia
[28] = tested on: NCI-H226 lung
[29] = tested on: NCI-H23 lung
[30] = tested on: NCI-H460 lung
[31] = tested on: NCI-H522 lung
[32] = tested on: NCI/ADR-RES ovarian
[33] = tested on: OVCAR-3 ovarian
[34] = tested on: OVCAR-4 ovarian
[35] = tested on: OVCAR-5 ovarian
[36] = tested on: OVCAR-8 ovarian
[37] = tested on: PC-3 prostate
[38] = tested on: RPMI-8226 leukemia
[39] = tested on: RXF 393 renal
[40] = tested on: SF-268 CNS
[41] = tested on: SF-295 CNS
[42] = tested on: SF-539 CNS
[43] = tested on: SK-MEL-2 melanoma
[44] = tested on: SK-MEL-28 melanoma
[45] = tested on: SK-MEL-5 melanoma
[46] = tested on: SK-OV-3 ovarian
[47] = tested on: SN12C renal
[48] = tested on: SNB-19 CNS
[49] = tested on: SNB-75 CNS
[50] = tested on: SR leukemia
[51] = tested on: SW-620 colon
[52] = tested on: T-47D breast
[53] = tested on: TK-10 renal
[54] = tested on: U251 CNS
[55] = tested on: UACC-257 melanoma
[56] = tested on: UACC-62 melanoma
[57] = tested on: UO-31 renal

SMILES: C[C@]12CC[C@@H]3c4ccc(O)cc4CC[C@H]3[C@@H]1CC[C@@H]2NS(=O)(=O)c1cccc(OC(F)(F)F)c1
- GI50 [1]: 1.92 µM
- TGI [1]: 3.93 µM
- GI50 [2]: 1.23 µM
- TGI [2]: 2.79 µM
- GI50 [3]: 2.7 µM
- TGI [3]: 8.24 µM
- GI50 [4]: 2.45 µM
- TGI [4]: 6.7 µM
- GI50 [5]: 1.97 µM
- TGI [5]: 3.66 µM
- GI50 [6]: 2.11 µM
- TGI [6]: 5.97 µM
- GI50 [7]: 3.16 µM
- TGI [7]: 12.3 µM
- GI50 [8]: 1.86 µM
- TGI [8]: 3.3 µM
- GI50 [9]: 3.83 µM
- TGI [9]: 12.1 µM
- GI50 [10]: 3.16 µM
- TGI [10]: 9.37 µM
- GI50 [11]: 1.84 µM
- TGI [11]: 3.53 µM
- GI50 [12]: 1.65 µM
- TGI [12]: 3.76 µM
- GI50 [13]: 2.18 µM
- TGI [13]: 7.04 µM
- GI50 [14]: 1.99 µM
- TGI [14]: 3.59 µM
- GI50 [15]: 1.44 µM
- TGI [15]: 3.95 µM
- GI50 [16]: 2.62 µM
- TGI [16]: 10.5 µM
- GI50 [17]: 2.14 µM
- TGI [17]: 3.94 µM
- GI50 [18]: 3.44 µM
- TGI [18]: 9.19 µM
- GI50 [19]: 3.35 µM
- TGI [19]: 10.8 µM
- GI50 [20]: 2.01 µM
- TGI [20]: 4.08 µM
- GI50 [21]: 1.77 µM
- TGI [21]: 3.17 µM
- GI50 [22]: 2.2 µM
- TGI [22]: 4.89 µM
- GI50 [23]: 1.99 µM
- TGI [23]: 4.67 µM
- GI50 [24]: 1.47 µM
- TGI [24]: 3.36 µM
- GI50 [25]: 1.71 µM
- TGI [25]: 3.86 µM
- GI50 [26]: 1.64 µM
- TGI [26]: 3.02 µM
- GI50 [27]: 2.63 µM
- TGI [27]: 12.1 µM
- GI50 [28]: 1.69 µM
- TGI [28]: 3.29 µM
- GI50 [29]: 2.08 µM
- TGI [29]: 4.87 µM
- GI50 [30]: 1.89 µM
- TGI [30]: 3.71 µM
- GI50 [31]: 2.23 µM
- TGI [31]: 5.42 µM
- GI50 [32]: 2.59 µM
- TGI [32]: 7.7 µM
- GI50 [33]: 2.04 µM
- TGI [33]: 3.99 µM
- GI50 [34]: 1.85 µM
- TGI [34]: 4.69 µM
- GI50 [35]: 1.73 µM
- TGI [35]: 3.2 µM
- GI50 [36]: 2.78 µM
- TGI [36]: 9.06 µM
- GI50 [37]: 2.13 µM
- TGI [37]: 8.18 µM
- GI50 [38]: 2.38 µM
- TGI [38]: 6.4 µM
- GI50 [39]: 1.64 µM
- TGI [39]: 3.6 µM
- GI50 [40]: 3.18 µM
- TGI [40]: 13.6 µM
- GI50 [41]: 1.58 µM
- TGI [41]: 3 µM
- GI50 [42]: 1.69 µM
- TGI [42]: 3.09 µM
- GI50 [43]: 2.18 µM
- TGI [43]: 4.39 µM
- GI50 [44]: 1.76 µM
- TGI [44]: 3.23 µM
- GI50 [45]: 1.7 µM
- TGI [45]: 3.32 µM
- GI50 [46]: 3.1 µM
- TGI [46]: 7.68 µM
- GI50 [47]: 1.65 µM
- TGI [47]: 3.26 µM
- GI50 [48]: 3.46 µM
- TGI [48]: 16.1 µM
- GI50 [49]: 1.67 µM
- TGI [49]: 4.32 µM
- GI50 [50]: 3.37 µM
- TGI [50]: 9.92 µM
- GI50 [51]: 3.34 µM
- TGI [51]: 12.6 µM
- GI50 [52]: 2.14 µM
- TGI [52]: 5.18 µM
- GI50 [53]: 3.45 µM
- TGI [53]: 10.1 µM
- GI50 [54]: 2.54 µM
- TGI [54]: 6.94 µM
- GI50 [55]: 2.16 µM
- TGI [55]: 6.5 µM
- GI50 [56]: 2.04 µM
- TGI [56]: 4.7 µM
- GI50 [57]: 1.83 µM
- TGI [57]: 5.46 µM
